Experimental data from paper PMC9718795, “Caffeic acid N-[3,5-bis(trifluoromethyl)phenyl] amide as a non-steroidal inhibitor for steroid 5α-reductase type 1 using a human keratinocyte cell-based assay and molecular dynamics” (Scientific Reports, 2022).
Like-named read-outs stand apart in the source and are kept apart here.

How the values were obtained:
[1] = tested on: human keratinocyte (HaCaT) cells; experiment: In vitro cytotoxic MTT assay against HaCaT cells; format: cell-based; details: 0.5–50 µM, 24 h
Description: (§1) The cytotoxicity of caffeic acid and its amide derivatives were evaluated with two cell lines, human keratinocyte (HaCaT) and DP cells, using the common cell viability assay with MTT. HaCaT and DP cells were seeded at 1 × 10^4 cell/well in 96-well plates in a complete DMEM medium, incubated overnight, and treated with test compounds at 0–50 µM for 24 h. The stock solutions of all the test compounds were prepared in DMSO. Each compound was serially diluted in DMEM to achieve concentrations at 0.5–50 µM; DMEM was used as the negative control. After 24 h of treatment, the culture medium was removed, and cell viability was determined by adding 100 µL of 0.5 mg/mL MTT at 37 °C in darkness for 3 h. After removing the MTT solution, 100 µL of DMSO was added to each well to dissolve the purple formazan crystals. The absorbance was measured at 570 nm using a microplate reader, and the IC50 value was calculated. Each experiment was performed in triplicates.

[2] = tested on: dermal papilla (DP) cells; experiment: In vitro cytotoxic MTT assay against DP cells; format: cell-based, human; details: 0.5–50 µM, 24 h
Description: as §1

[3] = Cell viability (MTT) run in parallel with the HaCaT-based SRD5A1 inhibitory assay; parameters: species or system human; details: human
HaCaT cells = experiment: as above; parameters: species or system human; details: human, 24 h, 20 µM
[4] = molecular target: T1, steroid 5α-reductase type 1 (SRD5A1) (Homo sapiens, UniProt P18405); experiment: HaCaT cell-based SRD5A1 inhibitory assay with direct DHT detection by HPTLC; details: HaCaT, HaCaT, read-out: % Inhibition of DHT production ± SD; for inhibition at 20 µM: compound 20 µM, 24 h
T1 construct: HaCaTs-produced SRD5A1 smoothly converted testosterone to DHT; endogenous in cells; host or cells: HaCaT human keratinocytes
T1 sequence (P18405 1-259): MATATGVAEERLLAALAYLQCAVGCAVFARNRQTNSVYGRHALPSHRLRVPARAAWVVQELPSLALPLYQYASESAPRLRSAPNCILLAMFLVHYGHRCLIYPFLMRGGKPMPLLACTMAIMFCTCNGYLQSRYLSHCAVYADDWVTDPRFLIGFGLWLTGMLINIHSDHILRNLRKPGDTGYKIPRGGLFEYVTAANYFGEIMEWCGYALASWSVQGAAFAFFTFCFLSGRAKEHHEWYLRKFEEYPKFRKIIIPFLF

HaCaTs-produced SRD5A1 = molecular target: T2, HaCaTs-produced SRD5A1 (Homo sapiens, UniProt P18405); experiment: Whole-cell-based kinetic study of HaCaT-produced SRD5A1 with HPTLC; details: no inhibitor, 12 h
T2 construct: HaCaTs-produced SRD5A1 smoothly converted testosterone to DHT; endogenous in cells; host or cells: HaCaT human keratinocytes
T2 sequence (P18405 1-259): T1 sequence (P18405 1-259)
Description: (§2) The in vitro whole HaCaT cell-based assay for the kinetic inhibition against SRD5A1 included culturing the cells for 48 h, treating the cells with testosterone and compound 4 for 12 h and evaluating the % intensity of DHT and cell viability using HPTLC analysis and MTT assay, respectively. The HaCaT cells were seeded and incubated as same as the method shown in 3.8. For the evaluation of dose-dependent activity of testosterone, the different concentration of testosterone (0 − 50 μM) and DMEM with 0.1% DMSO were added. […] DMEM with 0.1% DMSO was used as negative control. Then, the cells were incubated for 12 h. The collection of cell culture medium, extraction process, sample preparation and HPTLC detection were prepared by the method mentioned above (3.8). The obtaining chromatogram was visualized by CAMAG HPTLC Software vision CATS and analyzed by Image J software. The percentage of DHT intensity was calculated based on the intensity of DHT normalized by the standard of DHT at 100 μM. At the same time, the cell viability of the treated cells was assessed by the MTT assay. Each experiment was repeated in triplicate.

[5] = Cell viability (MTT) in the whole-cell kinetic study; format: cell-based; details: human, HaCaT cells, testosterone 0−50 µM, read-out: Cell viabilities
Description: as §2

[6] = molecular target: T1, steroid 5α-reductase type 1 (SRD5A1); parameters: method as in PMID 28250347; details: same HaCaT cell-based assay; read-out: IC50 of SRD5A1 inhibition; cited from earlier work
[7] = substrate: C[C@]12CC[C@H]3[C@@H](CCC4=CC(=O)CC[C@@]43C)[C@@H]1CC[C@@H]2O; experiment: Whole-cell-based kinetic study of HaCaT-produced SRD5A1 with HPTLC; parameters: species or system human; details: other: no inhibitor, Michaelis–Menten, 12 h
Description: as §2

[8] = HaCaT cells, compound 20 µM, HaCaT, 24 h, read-out: % Cell viability ± SD

Molecule: O=C(O)C=Cc1ccc(O)c(O)c1 [Compound 1, 3,4-dihydroxycinnamic acid]
- Toxicity against HaCaT cells [1]: no toxicity
- Toxicity against DP cells [2]: no toxicity
- viability at 24 h, 20 µM ([3]; % Cell viability ± SD): 86%
- % Cell viability ± SD (HaCaT cells): 86.38 ± 5.70%

Molecule: O=C(C=Cc1ccc(O)c(O)c1)Nc1ccccc1 [Compound 2, 3-(3,4-dihydroxyphenyl)-N-phenyl-2-propenamide]
- inhibition at 20 µM [4]: 4.84 ± 2.12%
- Toxicity against HaCaT cells [1]: no toxicity
- Toxicity against DP cells [2]: no toxicity
- viability at 24 h, 20 µM [3, 8]: 102.9 ± 0.4%

Molecule: CC(C)(C)NC(=O)C=Cc1ccc(O)c(O)c1 [Compound 3, 3-(3,4-dihydroxyphenyl)-N-(1,1-dimethylethyl)-2-propenamide]
- inhibition at 20 µM [4]: 2 ± 2.12%
- Toxicity against HaCaT cells [1]: no toxicity
- Toxicity against DP cells [2]: no toxicity
- viability at 24 h, 20 µM [3, 8]: 102 ± 2.09%

Molecule: C[C@]12C=CC(=O)N[C@@H]1CC[C@@H]1[C@@H]2CC[C@]2(C)[C@@H](C(=O)Nc3cc(C(F)(F)F)ccc3C(F)(F)F)CC[C@@H]12 [Dutasteride, reference compound]
- inhibition at 2.5 µM [4]: 100%
- viability at 24 h, 2.5 µM ([3]; HaCaT cells, 2.5 µM, positive control, HaCaT, 24 h, read-out: % Cell viability ± SD): 88.14 ± 0.11%

Molecule: C[C@]12CC[C@H]3[C@@H](CCC4=CC(=O)CC[C@@]43C)[C@@H]1CC[C@@H]2O [Testosterone, reference compound]
- inhibition at 10 µM [4]: 0%
- viability at 24 h, 10 µM ([3]; 10 µM testosterone, substrate only, read-out: % Cell viability ± SD): 100%
- Vmax in the absence of inhibitors (HaCaTs-produced SRD5A1): 130.9
- % DHT intensity ± S.D. (HaCaTs-produced SRD5A1; testosterone 1 µM): 15.35 ± 9.10%
- % DHT intensity ± S.D. (HaCaTs-produced SRD5A1; testosterone 5 µM): 43.55 ± 10.80%
- % DHT intensity ± S.D. (HaCaTs-produced SRD5A1; testosterone 10 µM): 65.05 ± 13.06%
- % DHT intensity ± S.D. (HaCaTs-produced SRD5A1; testosterone 25 µM): 103.52 ± 20.66%
- % DHT intensity ± S.D. (HaCaTs-produced SRD5A1; testosterone 50 µM): 105.75 ± 11.30%
- viability at 12 h [5]: ~80%

Molecule: CC(C)(O)c1cc2c(o1)C(=O)c1ccccc1C2=O [avicequinone C]
- IC50 [6]: 4.45 ± 0.42 µM

B1: HaCaTs-produced SRD5A1 (Homo sapiens) (protein)
chain: T1 sequence (P18405 1-259)
notes: HaCaTs-produced SRD5A1 smoothly converted testosterone to DHT; endogenous in cells; host or cells: HaCaT human keratinocytes
- Km [7]: 9.287 µM
